# In US20070010489A1 (priority 2002, published 2007):
# Read-outs that look alike come from different tables or passages of the source.
# How the values were obtained:
# HIV = assay: microbe, parasite or virus in culture; type: cell-based; conditions: Human immunodeficiency virus 1
# I50V (#1) = tested on: I50V (#1); design: key to the marks not given beside the values
# I84V/L90M = tested on: I84V/L90M; design: key to the marks not given beside the values
# 84V90M [1] = target: T1, 84V90M (Human immunodeficiency virus type 1 group M subtype B, UniProt P04585, I572V/L578M); assay: biochemical; type: biochemical, HIV; conditions: Enzymatic assay
# [2] = target: T2, recombinant HIV-1 protease (Human immunodeficiency virus type 1 group M subtype B, UniProt P04585); assay: biochemical; conditions: for IC50: read-out: WT IC50
# T2 construct: Enzyme: recombinant HIV-1 protease expressed in E. Coli; purchased Bachem California, Inc. H-9040; host or cells: E. coli
# 84V90M [3] = target: T1, 84V90M; type: biochemical, HIV; conditions: Enzymatic assay
# WT = assay: microbe, parasite or virus in culture; type: cell-based, HIV
# 84V90M [4] = target: T1, 84V90M; assay: cell-based; design: species or system HIV; conditions: Cell-based assay (MT-4)
# 30N82I88D = assay: microbe, parasite or virus in culture; type: cell-based, HIV
# 48V54V82A = assay: microbe, parasite or virus in culture; type: cell-based, HIV
# 46I50V = assay: microbe, parasite or virus in culture; type: cell-based, HIV
# 48V54V82S = assay: microbe, parasite or virus in culture; type: cell-based, HIV
# 48V82A90M = assay: microbe, parasite or virus in culture; type: cell-based, HIV
# [5] = tested on: mutant HIV-1 with I84V/L90M mutations; assay: microbe, parasite or virus in culture; type: cell-based; conditions: for I84V/L90M fold change: fold difference in EC50 mutant vs wild type, class symbols
# in vitro = conditions: human, CC50 (μM)
# [6] = tested on: wild-type HIV-1 strain IIIB; assay: microbe, parasite or virus in culture; type: cell-based; conditions: Human immunodeficiency virus 1, IIIB
# [7] = tested on: Recombinant HIV-1 Strains With Resistance Mutations in the Protease Gene; assay: Cross-Resistance Profile Assay, whole panel; type: cell-based; conditions: resistance = 5-fold and higher change in EC50 vs wild type; 11 mutant viruses
# [8] = tested on: PBMC in human whole blood
# WT HIV-1 = assay: microbe, parasite or virus in culture; conditions: Human immunodeficiency virus 1, read-out: Cell-based assay (MT-4) EC50/nM WT
# [9] = tested on: recombinant HIV-1 10I/48V/54V/82A; assay: microbe, parasite or virus in culture; type: cell-based
# [10] = tested on: recombinant HIV-1 46I/47V/50V; assay: microbe, parasite or virus in culture; type: cell-based
# [11] = tested on: recombinant HIV-1 30N/50S/82I/88D; assay: microbe, parasite or virus in culture; type: cell-based
# [12] = tested on: recombinant HIV-1 10I/48V/71V/82A/90M; assay: microbe, parasite or virus in culture; type: cell-based
# [13] = tested on: recombinant HIV-1 48V/54V/71V/82S; assay: microbe, parasite or virus in culture; type: cell-based
# [14] = Human immunodeficiency virus 1, read-out: EC50 WT
# [15] = Human immunodeficiency virus 1, read-out: EC50 30N 82I88D
# [16] = Human immunodeficiency virus 1, read-out: EC50 48V54V 82A
# [17] = Human immunodeficiency virus 1, read-out: EC50 46I50V
smiles,measurement,setting,value
COc1ccc(S(=O)(=O)N(CC(O)C(Cc2ccccc2)NC(=O)OC2COC3OCCC23)CC(C)(C)CCOCP(=O)(O)O)cc1 (centres unmarked),EC50,HIV,50 to 500 nM
same,I50V (#1) fold change,I50V (#1),++
same,I84V/L90M fold change,I84V/L90M,++
COc1ccc(S(=O)(=O)N(CC(O)C(Cc2ccccc2)NC(=O)OC2COC3OCCC23)CC(C)(C)CCOCP(=O)(OCc2ccccc2)OCc2ccccc2)cc1 (centres unmarked),EC50,HIV,< 50 nM
same,I50V (#1) fold change,I50V (#1),+++
same,I84V/L90M fold change,I84V/L90M,+++
O=C1N(Cc2ccccc2)C(Cc2ccccc2)C(O)C(O)C(Cc2ccc(OCP(=O)(O)O)cc2)N1Cc1ccccc1 (centres unmarked) [listing 1 of 2 here],IC50,84V90M [1],210 nM
"O=C1N(Cc2ccccc2)C(Cc2ccc(O)cc2)C(O)C(O)C(Cc2ccc(O)cc2)N1Cc1ccccc1 (centres unmarked) [OH, Ph, OH]",IC50,[2],31 nM
same,IC50,84V90M [3],397 nM
same,EC50,WT; [14],117 nM
same,EC50,84V90M [4],5610 nM
same,EC50,30N82I88D; [15],756 nM
same,EC50,48V54V82A; [16],2270 nM
same,EC50,46I50V; [17],928 nM
Nc1n[nH]c2ccc(CN3C(=O)N(Cc4ccc(O)cc4)C(Cc4ccccc4)C(O)C(O)C3Cc3ccccc3)cc12 (centres unmarked) [p-OH],EC50,30N82I88D; [15],79 nM
same,EC50,48V54V82A; [16],32 nM
same,EC50,"48V54V82S; Human immunodeficiency virus 1, read-out: EC50 48V54V 82S",39 nM
same,EC50,"48V82A90M; Human immunodeficiency virus 1, read-out: EC50 48V82A 90M",19 nM
same,EC50,46I50V; [17],55 nM
"CCOP(=O)(CCNC(=O)Oc1ccc(CC2C(O)C(O)C(Cc3ccc(OC)cc3)N(Cc3ccc(O)cc3)C(=O)N2Cc2ccc(O)cc2)cc1)OCC (centres unmarked) [OCH3, Ph-pOH, OCONH(CH2)2PO3Et2]",IC50,84V90M [1],49 nM
"CCOP(=O)(COc1ccc(CC2C(O)C(O)C(Cc3ccc(OC)cc3)N(Cc3cccc(N)c3)C(=O)N2Cc2cccc(N)c2)cc1)OCC (centres unmarked) [OCH3, Ph-mNH2, OCH2PO3Et2]",IC50,84V90M [3],56 nM
same,IC50,84V90M [1],56 nM
same,EC50,84V90M [4],535 nM
CCOP(=O)(COc1ccc(CC(NC(=O)OC2COC3OCCC23)C(O)CN(CC(C)C)S(=O)(=O)c2ccc(OC)cc2)cc1)OCC (centres unmarked) [drawing 1768 R1=OEt R2=OEt],I84V/L90M fold change,[5],− (≦3)
same,CC50,in vitro,5 to 50 µM
O=C1N(Cc2ccccc2)C(Cc2ccccc2)C(O)C(O)C(Cc2ccc(OCP(=O)(O)O)cc2)N1Cc1ccccc1 (centres unmarked) [listing 2 of 2 here],IC50,84V90M [3],48 nM
same,EC50,WT; read-out: EC50 WT,107 nM
same,EC50,84V90M [4],2460 nM
same,EC50,"30N82I88D; Cell-based assay (MT-4), 30N82I88D, read-out: EC50 30N 82I88D",293 nM
same,EC50,"48V54V82A; Cell-based assay (MT-4), 48V54V82A, read-out: EC50 48V54V 82A",1440 nM
same,EC50,"48V54V82S; Cell-based assay (MT-4), 48V54V82S, read-out: EC50 48V54V 82S",1900 nM
same,EC50,"48V82A90M; read-out: EC50 48V82A 90M, Cell-based assay (MT-4), 48V82A90M",3290 nM
same,EC50,"46I50V; Cell-based assay (MT-4), 46I50V, read-out: EC50 46I50V",589 nM
COc1ccc(S(=O)(=O)N(CC(C)C)CC(O)C(Cc2ccc(OCP(=O)(OCc3ccccc3)OCc3ccccc3)cc2)NC(=O)OC2COC3OCCC23)cc1 (centres unmarked) [drawing 1768 R1=OBn R2=OBn],EC50,[6],< 50 nM
same,I84V/L90M fold change,[5],− (≦3)
same,CC50,MT-2 cells; human,5000 to 50000 nM
CCOC(=O)C(C)NP(=O)(COc1ccc(CC(NC(=O)OC2COC3OCCC23)C(O)CN(CC(C)C)S(=O)(=O)c2ccc(OC)cc2)cc1)Oc1ccccc1 (centres unmarked) [GS-16571],Total No. of Resistant Viruses,[7],0
same,Major Intracellular Metabolites,[8],"X,GS-8373"
"O=C1N(Cc2ccccc2)C(Cc2ccccc2)C(O)C(O)C(Cc2ccccc2)N1Cc1ccccc1 (centres unmarked) [H, Ph, H]",IC50,[2],34 nM
same,IC50,84V90M [3],631 nM
same,EC50,WT; [14],2490 nM
same,EC50,30N82I88D; [15],3360 nM
"CCOP(=O)(CCNC(=O)Oc1ccc(CC2C(O)C(O)C(Cc3ccc(OC)cc3)N(Cc3cccc(N)c3)C(=O)N2Cc2cccc(N)c2)cc1)OCC (centres unmarked) [OCH3, Ph-mNH2, OCONH(CH2)2PO3Et2]",EC50,"[5]; Human immunodeficiency virus 1, read-out: Cell-based assay (MT-4) EC50/nM 84V90M",2260 nM
same,EC50,WT HIV-1,74 nM
same,EC50,"[9]; Human immunodeficiency virus 1, read-out: Cell-based assay (MT-4) EC50/nM 48V54V82A",262 nM
same,EC50,"[10]; Human immunodeficiency virus 1, read-out: Cell-based assay (MT-4) EC50/nM 46I50V",184 nM
same,EC50,"[11]; Human immunodeficiency virus 1, read-out: Cell-based assay (MT-4) EC50/nM 30N82I88D",77 nM
same,EC50,"[12]; Human immunodeficiency virus 1, read-out: Cell-based assay (MT-4) EC50/nM 48V82A90M",215 nM
same,EC50,"[13]; Human immunodeficiency virus 1, read-out: Cell-based assay (MT-4) EC50/nM 48V54V82S",214 nM
same,IC50,84V90M [1],116 nM
CCCCOC(=O)C(C)NP(=O)(COc1ccc(CC(NC(=O)OC2COC3OCCC23)C(O)CN(CC(C)C)S(=O)(=O)c2ccc(OC)cc2)cc1)NC(C)C(=O)OCCCC (centres unmarked) [GS-16503],Total No. of Resistant Viruses,[7],0
"CCOP(=O)(COc1ccc(CC2C(O)C(O)C(Cc3ccc(OC)cc3)N(Cc3ccc(O)cc3)C(=O)N2Cc2ccc(O)cc2)cc1)OCC (centres unmarked) [OCH3, Ph-pOH, OCH2PO3Et2]",EC50,"[5]; MT-4, 84V90M, read-out: Cell-based assay (MT-4) EC50/nM 84V90M",148 nM
same,EC50,"[9]; MT-4, 48V54V82A, read-out: Cell-based assay (MT-4) EC50/nM 48V54V82A",70 nM
same,EC50,"[10]; MT-4, 46I50V, read-out: Cell-based assay (MT-4) EC50/nM 46I50V",90 nM
same,EC50,"[11]; MT-4, 30N82I88D, read-out: Cell-based assay (MT-4) EC50/nM 30N82I88D",25 nM
same,EC50,"[12]; MT-4, 48V82A90M, read-out: Cell-based assay (MT-4) EC50/nM 48V82A90M",54 nM
same,EC50,"[13]; MT-4, 48V54V82S, read-out: Cell-based assay (MT-4) EC50/nM 48V54V82S",129 nM
Nc1n[nH]c2ccc(CN3C(=O)N(Cc4cccc(OCP(=O)(O)O)c4)C(Cc4ccccc4)C(O)C(O)C3Cc3ccccc3)cc12 (centres unmarked) [m-OCH2PO3H2],IC50,84V90M [3],33 nM
same,EC50,WT; read-out: EC50 WT,> 12000 nM
COc1ccc(S(=O)(=O)N(CC(O)C(Cc2ccccc2)NC(=O)OC2COC3OCCC23)CC(C)(C)CO)cc1 (centres unmarked),EC50,HIV,< 50 nM
same,I50V (#1) fold change,I50V (#1),+++
same,I84V/L90M fold change,I84V/L90M,+++
COc1ccc(S(=O)(=O)N(Cc2ccccc2)CC(O)C(Cc2ccccc2)NC(=O)OC2COC3OCCC23)cc1 (centres unmarked),EC50,HIV,< 50 nM
same,I50V (#1) fold change,I50V (#1),+++
same,I84V/L90M fold change,I84V/L90M,+++
Nc1n[nH]c2ccc(CN3C(=O)N(Cc4ccc(OCc5ccccc5)cc4)C(Cc4ccccc4)C(O)C(O)C3Cc3ccccc3)cc12 (centres unmarked) [p-OBn],Ki,[2]; read-out: Ki,> 5 nM
same,IC50,[2],353 nM
same,EC50,WT; read-out: EC50 WT,2120 nM
same,EC50,84V90M [4],5310 nM
CCOC(=O)C(C)OP(=O)(COc1ccc(CC(NC(=O)OC2COC3OCCC23)C(O)CN(CC(C)C)S(=O)(=O)c2ccc(OC)cc2)cc1)Oc1ccccc1 (centres unmarked) [drawing 1775 R1=OPh R2=Lac-Et],CC50,MT-2 cells; class symbols,5000 to 50000 nM
O=C1N(Cc2ccccc2)C(Cc2ccccc2)C(O)C(O)C(Cc2ccc(OCP(=O)(OCc3ccccc3)OCc3ccccc3)cc2)N1Cc1ccccc1 (centres unmarked),IC50,84V90M [1],158 nM
